Source: publication PMC7923628 (Proceedings of the National Academy of Sciences of the …, 2021)

Tests used:
[1] = target: E3 ROC1–CUL1 CTD (Homo sapiens, UniProt Q13616); test: FRET K48 di-Ub synthesis with ROC1–CUL1 CTD; type: biochemical; conditions: for blocking ubiquitination (in words): Table S2
[2] = target: E3 ROC1–CUL1 CTD complex (Homo sapiens, UniProt Q13616); test: MST ligand binding to ROC1–CUL1 CTD; conditions: Table S2
[3] = test system: p27; test: Immunoblot of CRL1/SCF^Skp2 substrate p27 in MV4-11 cells; type: cell-based, human
[4] = test system: MV4-11 tumors; test: AML MV4-11 subcutaneous xenograft in mice; type: in vivo, mouse; conditions: G5, 3 mg/kg, oral, QD

Chain of E3 ROC1–CUL1 CTD (Q13616 411-776): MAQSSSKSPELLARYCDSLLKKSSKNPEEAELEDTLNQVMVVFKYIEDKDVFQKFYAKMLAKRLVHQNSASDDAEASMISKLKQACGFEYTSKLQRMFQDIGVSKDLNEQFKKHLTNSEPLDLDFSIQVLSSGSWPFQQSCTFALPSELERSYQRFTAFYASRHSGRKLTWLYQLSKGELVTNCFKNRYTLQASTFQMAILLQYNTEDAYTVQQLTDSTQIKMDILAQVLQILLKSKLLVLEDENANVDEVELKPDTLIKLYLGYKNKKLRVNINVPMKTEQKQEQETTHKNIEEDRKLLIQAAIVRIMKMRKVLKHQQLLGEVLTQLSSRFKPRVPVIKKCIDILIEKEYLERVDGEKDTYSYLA
Chain of E3 ROC1–CUL1 CTD (P62877 whole entry partner): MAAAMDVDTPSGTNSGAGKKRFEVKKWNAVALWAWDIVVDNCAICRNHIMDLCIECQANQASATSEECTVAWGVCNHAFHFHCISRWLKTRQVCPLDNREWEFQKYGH
Chain of E3 ROC1–CUL1 CTD complex (Q13616 411-776): as the sequence (Q13616 411-776) above
Chain of E3 ROC1–CUL1 CTD complex (P62877 whole entry partner): as the sequence (P62877 whole entry partner) above

Cc1oc2c(O)c(O)ccc2c(=O)c1Oc1ccccc1 [33-2, 7,8-dihydroxy-2-methyl-3-phenoxy-4H-chromen-4-one]
drop in IC50 ([1]; compared with 33): sevenfold

COc1ccc2c(=O)c(Oc3ccccc3)c(C)oc2c1OC [33-3, 7,8-dimethoxy-2-methyl-3-phenoxy-4H-chromen-4-one]
E3 binding (in words) [2]: completely inactive
blocking ubiquitination (in words) [1]: completely inactive

O=c1c(Oc2ccccc2)c(C(F)(F)F)oc2cc(O)ccc12 [33-7, 7-hydroxy-3-phenoxy-2-(trifluoromethyl)-4H-chromen-4-one]
blocking ubiquitination (in words) [1]: inactive

NS(=O)(=O)OC[C@@H]1C[C@@H](n2ccc3c(N[C@H]4CCc5ccccc54)ncnc32)C[C@@H]1O [MLN4924]
effect on p27 level [3]: stabilized

CNC(=O)c1cc(Oc2ccc(NC(=O)Nc3ccc(Cl)c(C(F)(F)F)c3)cc2)ccn1 [sorafenib]
tumor inhibition [4]: 46.02%
